According to US6027747A, “Process for the production of dry pharmaceutical forms and the thus obtained pharmaceutical compositions” (priority 1998, dated 2000):
Where “and” joins values, the source holds several entries; their conditions need not be identical. Equal values may be shown once.

Experiment: Kinetics of dissolution of fenofibrate (UV 278 nm)
Format: physicochemical
Details: for kinetics of dissolution of fenofibrate: 5 mg/l, one value per dish, Dish 1 to 6 in order
Method: The system of measurements used for the galenical control of the solid dispersions was made of two members: an apparatus of dissolution DISSOLUTEST DT 6 from ERWEKA [Euraf 55 rue Deschanel 92400 Courbevoie (France)] and a peristaltic pump 505 SR WATSON-MARLOW from Prolabo. Each test of dissolution was performed in one liter of degassed distilled water at 37° C. and at a pH near neutral. A sample of 4 mg of estradiol (i.e. 25 mg co-precipitate) was introduced in each of the six reactors at time t=0 and the speed of stirring of the paddles was 100 rounds/min. The dosages by UV (absorption at 278 nm) were performed continuously and in a closed circuit of a multi-channel peristaltic pump, connecting the beakers of the Dissolutest to the dishes of the spectrophometer. The latter was linked to a recorder and to a printing machine to permit the measurement at steady intervals of every 3 minutes of the variations of the optical density, themselves being proportional to the variations of the concentration of the active ingredient in the dissolution medium.
This was identical to that used for the study of the kinetics of dissolution for the co-precipitates of estradiol.
Therefore, it had been decided to prepare a calibrating range at 5 mg/l as for progesterone and to determine the kinetics of dissolution while introducing an equivalent amount of co-precipitate.

kinetics of dissolution of fenofibrate (0 min): 0
kinetics of dissolution of fenofibrate (6 min): 92.1 and 95.78 and 91.05 and 90.52
kinetics of dissolution of fenofibrate (9 min): 87.89 and 91.05 and 86.31 and 85.78
Compound: CC(C)OC(=O)C(C)(C)Oc1ccc(C(=O)c2ccc(Cl)cc2)cc1 [Fenofibrate]
kinetics of dissolution of fenofibrate (3 min): 95.26 and 98.94 and 93.68 and 94.21 and 93.15
kinetics of dissolution of fenofibrate (12 min): 83.68 and 86.31 and 82.1 and 83.15 and 80.52
kinetics of dissolution of fenofibrate (15 min): 80.52 and 83.15 and 78.42 and 80 and 76.84
kinetics of dissolution of fenofibrate (18 min): 77.89 and 77.36 and 80 and 75.26 and 74.21
kinetics of dissolution of fenofibrate (21 min): 74.73 and 76.84 and 71.57 and 73.68 and 71.05
kinetics of dissolution of fenofibrate (24 min): 72.1 and 73.68 and 68.94 and 71.05 and 68.42
kinetics of dissolution of fenofibrate (27 min): 70 and 71.57 and 66.84 and 68.94 and 66.31
kinetics of dissolution of fenofibrate (30 min): 68.42 and 67.89 and 69.47 and 64.73 and 67.36
recrystallization in the course of the dissolution test (in words): a recrystallization of fenofibrate had been observed
